# Target: T1, Human CYP8B1 (Homo sapiens, UniProt Q9UNU6)
# T1 sequence (Q9UNU6 1-501): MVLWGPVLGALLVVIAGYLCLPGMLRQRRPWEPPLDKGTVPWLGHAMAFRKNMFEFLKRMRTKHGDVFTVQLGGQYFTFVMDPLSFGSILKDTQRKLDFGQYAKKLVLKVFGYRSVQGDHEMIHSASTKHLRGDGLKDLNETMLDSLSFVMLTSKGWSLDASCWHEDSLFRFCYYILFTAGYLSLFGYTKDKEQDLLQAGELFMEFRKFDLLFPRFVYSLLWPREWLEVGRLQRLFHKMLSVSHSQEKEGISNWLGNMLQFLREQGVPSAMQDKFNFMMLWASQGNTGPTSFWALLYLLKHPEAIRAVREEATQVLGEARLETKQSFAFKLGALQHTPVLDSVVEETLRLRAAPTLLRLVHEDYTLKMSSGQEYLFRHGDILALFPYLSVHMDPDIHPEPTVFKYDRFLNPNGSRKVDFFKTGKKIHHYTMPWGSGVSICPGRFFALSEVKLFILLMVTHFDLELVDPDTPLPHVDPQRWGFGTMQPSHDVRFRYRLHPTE
# Assay: Human CYP8B1 Liver Microsome Assay
# Details: Human CYP8B1 IC50, human liver microsomes; substrate 7a-hydroxy-4-cholesten-3-one, NADPH; RapidFire MS detection of 7α,12α-dihydroxy-4-cholesten-3-one
row,IC50,Structure (SMILES)
1,0.5 nM,"C[C@@H]1CN(c2c(C#N)cnc3cc(C(F)F)ccc23)CC[C@@H]1C(=O)N1CCn2c(nnc2C(F)(F)F)C1 [Example 23, 7-(difluoromethyl)-4-((3S,4S)-3-methyl-4-(3-(trifluoromethyl)-5,6,7,8-tetrahydro-[1,2,4]trizolo[4,3-a]pyrazine-7-carbonyl)piperidin-1-yl)quinolone-3-carbonitrile]"
2,2.6 nM,"C[C@@H]1CN(c2c(C#N)cnc3cnc(F)cc23)CC[C@@H]1C(=O)N1CCn2c(nnc2C(F)(F)F)C1 [Example 31, 6-fluoro-4-[(3S,4S)-3-methyl-4-{[3-(trifluoromethyl)-5,6-dihydro[1,2,4]triazolo[4,3-a]pyrazin-7(8H)-yl]carbonyl}piperidin-1-yl]-1,7-naphthyridine-3-carbonitrile]"
3,1 nM,"C[C@@H]1CN(c2c(C#N)cnc3c(F)c(Cl)c(F)cc23)CC[C@@H]1C(=O)N1CCn2c(nnc2C(F)(F)F)C1 [Example 15, 7-chloro-6,8-difluoro-4-[(3S,4S)-3-methyl-4-{[3-(trifluoromethyl)-5,6-dihdyro[1,2,4]triazolo[4,3-a]pyrazin-7(8H)-yl]carobnyl}piperidin-1-yl]quinoline-3-carbonitrile]"
4,6.3 nM,"N#Cc1cnc2cc(C(F)(F)F)ccc2c1N1CCC(C(=O)N2CCn3c(nnc3C(F)(F)F)C2)CC1 [Example 43, 7-(trifluoromethyl)-4-(4-{[3-(trifluoromethyl)-5,6-dihydro[1,2,4]triazolo[4,3-a]pyrazin-7(8H)-yl]carbonyl}piperidin-1-yl)quinoline-3-carbonitrile]"
5,41 nM,"C[C@@H]1CN(c2c(C#N)c(C(F)F)nc3ccc(Cl)cc23)CC[C@@H]1C(=O)N1CCn2c(nnc2C(F)(F)F)C1 (single isomer, unassigned) [Example 57a]"
6,1930 nM,"N#Cc1cnc2ccc(Cl)cc2c1N1CC[C@@]2(C(=O)N3CCn4c(nnc4C(F)(F)F)C3)C[C@H]2C1 (single isomer, unassigned) [Example 81b]"
7,270 nM,"COC(=O)c1ccc2nc(C(=O)OC)c(C#N)c(N3CC[C@H](C(=O)N4CCn5c(nnc5C(F)(F)F)C4)[C@H](C)C3)c2c1 [Example 60, dimethyl 3-cyano-4-[(3S,4S)-3-methyl-4-{[3-(trifluoromethyl)-5,6-dihydro[1,2,4]triazolo[4,3-a]pyrazin-7(8H)-yl]carbonyl}piperidin-1-yl]quinoline-2,6-dicarboxylate]"
8,18 nM,"COC(=O)c1nc2ccc(Cl)cc2c(N2CC[C@H](C(=O)N3CCn4c(nnc4C(F)(F)F)C3)[C@H](C)C2)c1C#N [Example 59, methyl 6-chloro-3-cyano-4-[(3S,4S)-3-methyl-4-{[3-(trifluoromethyl)-5,6-dihydro[1,2,4]triazolo[4,3-a]pyrazin-7(8H)-yl]carbonyl}piperidin-1-yl]quinoline-2-carboxylate]"
9,0.3 nM,"C[C@@H]1CN(c2c(C#N)cnc3cc(OC4CC4)ccc23)CC[C@@H]1C(=O)N1CCn2c(nnc2C(F)(F)F)C1 [Example 38, 7-(cyclopropyloxy)-4-[(3S,4S)-3-methyl-4-{[3-(trifluoromethyl)-5,6-dihydro[1,2,4]triazolo[4,3-a]pyrazin-7(8H)-yl]carbonyl}piperidin-1-yl]quinoline-3-carbonitrile]"
10,0.4 nM,"C[C@@H]1CN(c2c(C#N)cnc3cc(-c4ncco4)ccc23)CC[C@@H]1C(=O)N1CCn2c(nnc2C(F)(F)F)C1 [Example 89, 4-((3S,4S)-3-methyl-4-(3-(trifluoromethyl)-5,6,7,8-tetrahydro-[1,2,4]triazolo[4,3-a]pyrazine-7-carbonyl)piperidin-1-yl)-7-(oxazol-2-yl)quinoline-3-carbonitrile]"
11,32 nM,"COc1ccc2c(N3CCC(C(=O)N4CCn5c(nnc5C(F)(F)F)C4)CC3)c(C#N)cnc2c1 [Example 44, 7-methoxy-4-(4-{[3-(trifluoromethyl)-5,6-dihydro[1,2,4]triazolo[4,3-a]pyrazin-7(8H)-yl]carbonyl}piperidin-1-yl)quinoline-3-carbonitrile]"
12,1.8 nM,"COc1ccc2c(N3CC[C@H](C(=O)N4CCn5c(nnc5C(F)(F)F)C4)[C@H](C4CC4)C3)c(C#N)cnc2c1F [Example 77b, 4-[(3S,4S)-3-cyclopropyl-4-{[3-(trifluoromethyl)-5,6-dihydro[1,2,4]triazolo[4,3-a]pyrazin-7(8H)-yl]carbonyl}piperidin-1-yl]-8-fluoro-7-methoxyquinoline-3-carbonitrile]"
13,17 nM,"Cc1nc2ccc(Cl)cc2c(N2CC[C@H](C(=O)N3CCc4[nH]ncc4C3)[C@H](C)C2)c1C#N [Example 95, 6-chloro-2-methyl-4-[(3S,4S)-3-methyl-4-(1,4,6,7-tetrahydro-5H-pyrazolo[4,3-c]pyridin-5-ylcarbonyl)piperidin-1-yl]quinoline-3-carbonitrile]"
14,2260 nM,"Cc1nc2cc(F)c(F)cc2c(N2CCC(C(=O)N3CCn4c(nnc4C(F)(F)F)C3)CC2)c1C#N [Example 50, 6,7-difluoro-2-methyl-4-(4-(3-(trifluoromethyl)-5,6,7,8-tetrahydro-[1,2,4]triazolo[4,3-a]pyrazine-7-carbonyl)piperidin-1-yl)quinoline-3-carbonitrile]"
15,0.36 nM,"C[C@@H]1CN(c2c(C#N)cnc3cc(Br)ccc23)CC[C@@H]1C(=O)N1CCn2c(nnc2C(F)(F)F)C1 [Example 4, 7-bromo-4-[(3S,4S)-3-methyl-4-{[3-(trifluoromethyl)-5,6-dihydro[1,2,4]triazolo[4,5-a]pyrazin-7(8H)-yl]carbonyl}piperidin-1-yl]quinoline-3-carbonitrile]"
16,1.5 nM,"C[C@@H]1CN(c2c(C#N)c(Cl)nc3ccc(Cl)cc23)CC[C@@H]1C(=O)N1CCn2c(nnc2C(F)(F)F)C1 [Example 56, 2,6-dichloro-4-[(3S,4S)-3-methyl-4-{[3-(trifluoromethyl)-5,6-dihydro[1,2,4]triazolo[4,3-a]pyrazin-7(8H)-yl]carbonyl}piperidin-1-yl]quinoline-3-carbonitrile]"
17,1.4 nM,"COc1cccc2nc(C)c(C#N)c(N3CC[C@H](C(=O)N4CCn5c(nnc5C(F)(F)F)C4)[C@H](C)C3)c12 [Example 35, 5-methoxy-2-methyl-4-[(3S,4S)-3-methyl-4-{[3-(trifluoromethyl)-5,6-dihydro[1,2,4]triazolo[4,3-a]pyrazin-7(8H)-yl]carbonyl}piperidin-1-yl]quinoline-3-carbonitrile]"
18,12 nM,"N#Cc1cnc2cc(Br)ccc2c1N1CCC(C(=O)N2CCn3c(nnc3C(F)(F)F)C2)CC1 [Example 40, 7-bromo-4-(4-{[3-(trifluoromethyl)-5,6-dihydro[1,2,4]triazolo[4,3-a]pyrazin-7(8H)-yl]carbonyl}piperidin-1-yl)quinoline-3-carbonitrile]"
19,0.88 nM,"COc1ccc2c(N3CC[C@H](C(=O)N4CCn5c(nnc5C(F)F)C4)[C@H](C)C3)c(C#N)cnc2c1 [Example 70, 4-[(3S,4S)-4-{[3-(difluoromethyl)-5,6-dihydro[1,2,4]triazolo[4,3-a]pyrazin-7(8H)-yl]carbonyl}-3-methylpiperidin-1-yl]-7-methoxyquinoline-3-carbonitrile]"
20,16 nM,"CC1CC(C(=O)N2CCn3c(nnc3C(F)(F)F)C2)CCN1c1c(C#N)cnc2ccc(Cl)cc12 (single isomer, unassigned) [Example 73c, 6-chloro-4-[(2R,4S) or (2S,4R)-2-methyl-4-{[3-(trifluoromethyl)-5,6-dihydro[1,2,4]triazolo[4,3-a]pyrazin-7(8H)-yl]carbonyl}piperidin-1-yl]quinoline-3-carbonitrile]"
21,2.5 nM,"COc1cccc2c(N3CC[C@H](C(=O)N4CCn5c(nnc5C(F)(F)F)C4)[C@H](C)C3)c(C#N)cnc12 [Example 11, 8-methoxy-4-[(3S,4S)-3-methyl-4-{[3-(trifluoromethyl)-5,6-dihydro[1,2,4]triazolo[4,3-a]pyrazin-7(8H)-yl]carbonyl}piperidin-1-yl]quinoline-3-carbonitrile]"
22,2.1 nM,"C[C@@H]1CN(c2c(C#N)cnc3cc(F)ccc23)CC[C@@H]1C(=O)N1CCn2c(nnc2C(F)(F)F)C1 [Example 6, 7-fluoro-4-[(3S,4S)-3-methyl-4-{[3-(trifluoromethyl)-5,6-dihydro[1,2,4]triazolo[4,3-a]pyrazin-7(8H)-yl]carbonyl}piperidin-1-yl]quinoline-3-carbonitrile]"
23,0.47 nM,"C[C@@H]1CN(c2c(C#N)cnc3c(F)c(Cl)ccc23)CC[C@@H]1C(=O)N1CCn2c(nnc2C(F)(F)F)C1 [Example 1, 7-chloro-8-fluoro-4-[(3S,4S)-3-methyl-4-{[3-(trifluoromethyl)-5,6-dihydro[1,2,4]triazolo[4,3-a]pyrazin-7(8H)-yl]carbonyl}piperidin-1-yl]quinoline-3-carbonitrile]"
24,1.6 nM,"C[C@@H]1CN(c2c(C#N)cnc3ccccc23)CC[C@@H]1C(=O)N1CCn2c(nnc2C(F)(F)F)C1 [Example 79, 4-[(3S,4S)-3-methyl-4-{[3-(trifluoromethyl)-5,6-dihydro[1,2,4]triazolo[4,3-a]pyrazin-7(8H)-yl]carbonyl}piperidin-1-yl]quinoline-3-carbonitrile]"

# Same assay, conditions: read-out: Human CYP8B1 IC50; human liver microsomes; substrate 7a-hydroxy-4-cholesten-3-one, NADPH; RapidFire MS detection of 7α,12α-dihydroxy-4-cholesten-3-one
row,IC50,Structure (SMILES)
1,0.3 nM,"C[C@H]1CN(c2c(C#N)cnc3ccc(C(F)(F)F)cc23)CC[C@H]1C(=O)N1CCn2c(nnc2C(F)(F)F)C1 (single isomer, unassigned) [Example 119b]"

# — US10414774B2, “Compound useful for altering the levels of bile acids for the treatment of diabetes and cardiometabolc disease” (Merck Sharp & Dohme Corp., priority 2016, dated 2019)
